For data set [1] the following is noted: Crystal; DTA.
Data set [2] can be described thus: Molar enthalpy of transition or fusion. Particulars: Crystal; DSC.

SMILES strings stand for the structures. ± gives the expanded uncertainty stated by the source.

`CCCCCCOC(=O)NC(=N)c1ccc(NCc2nc3cc(C(=O)N(CCC(=O)OCC)c4ccccn4)ccc3n2C)cc1.CS(=O)(=O)O` [Dabigatran etexilate mesylate]: in data set [1], the Normal melting temperature stood at 190.09 ± 1.1 °C. Also, the “Molar enthalpy of transition or fusion” value in data set [2] is 15.4 ± 0.693 kcal/mol.

For the origin of these results see the NIST ThermoML archive (doi:10.1016/j.jct.2016.07.048).
